“And” between values parts separate entries of the source, which are not always exact repeats. Identical values can stand only once. ± gives the expanded uncertainty stated by the source.
Columns and labels:
[1] = 101 kPa, Liquid, Vibrating tube method
[2] = xn = mol fraction of the nth substance listed; details: 101 kPa, Liquid, Vibrating tube method
[3] = excess molar enthalpy (molar enthalpy of mixing); xn = mol fraction of the nth substance listed; details: 101 kPa, Liquid

OCC(F)(F)F [2,2,2-trifluoroethanol]
[1]
Details | mass density
283.15 K | 1408.2 ± 0.8 kg/m3
293.14 K | 1389.7 ± 0.8 kg/m3
293.15 K | 1391.1 ± 0.8 kg/m3
303.15 K | 1373.8 ± 0.8 kg/m3
303.19 K | 1372.4 ± 0.8 kg/m3
313.15 K | 1356.1 ± 0.8 kg/m3 and 1354.8 ± 0.8 kg/m3
323.15 K | 1338 ± 0.8 kg/m3 and 1336.6 ± 0.8 kg/m3
333.15 K | 1317.8 ± 0.8 kg/m3 and 1319.1 ± 0.8 kg/m3

CCn1cc[n+](C)c1.F[B-](F)(F)F [1-ethyl-3-methylimidazolium tetrafluoroborate] + OCC(F)(F)F
[2], x1 = 1
Details | mass density [kg/m3]
293.1 K | 1284.3 ± 3.2
303.11 K | 1276.5 ± 3.2
313.15 K | 1269.2 ± 3.1
323.14 K | 1261.8 ± 3.1
333.23 K | 1254.6 ± 3

CCCCn1cc[n+](C)c1.F[B-](F)(F)F [1-butyl-3-methylimidazolium tetrafluoroborate] + OCC(F)(F)F
[2], x1 = 1
Details | mass density [kg/m3]
283.15 K | 1213.3 ± 2.8
293.15 K | 1205.9 ± 2.8
303.15 K | 1198.6 ± 2.8
313.15 K | 1191.4 ± 2.7
323.15 K | 1184.4 ± 2.7
333.15 K | 1177.4 ± 2.7

OCC(F)(F)F [2,2,2-trifluoroethanol] + CCn1cc[n+](C)c1.F[B-](F)(F)F
Details | excess molar enthalpy [kcal/mol] | mass density [kg/m3]
[2], 293.14 K, x2 = 0 | – | 1389.7 ± 0.8
[2], 293.14 K, x2 = 0.755 | – | 1299.6 ± 1.9
[2], 293.15 K, x2 = 0.099 | – | 1373.3 ± 0.8
[2], 293.16 K, x2 = 0.305 | – | 1340.6 ± 0.9
[2], 293.17 K, x2 = 0.5164 | – | 1318.4 ± 1.2
[2], 303.16 K, x2 = 0.5164 | – | 1308.9 ± 1.2
[2], 303.17 K, x2 = 0.099 | – | 1359.1 ± 0.8
[2], 303.17 K, x2 = 0.755 | – | 1291.3 ± 1.9
[2], 303.18 K, x2 = 0.305 | – | 1329.4 ± 0.9
[2], 303.19 K, x2 = 0 | – | 1372.4 ± 0.8
[2], 313.15 K, x2 = 0 | – | 1354.8 ± 0.8
[2], 313.15 K, x2 = 0.099 | – | 1344.7 ± 0.8
[2], 313.16 K, x2 = 0.305 | – | 1318.4 ± 0.9
[2], 313.16 K, x2 = 0.755 | – | 1282.9 ± 1.9
[2], 313.19 K, x2 = 0.5164 | – | 1299.3 ± 1.2
[2], 323.12 K, x2 = 0.099 | – | 1330.5 ± 0.8
[2], 323.14 K, x2 = 0.5164 | – | 1290.2 ± 1.2
[2], 323.15 K, x2 = 0 | – | 1336.6 ± 0.8
[2], 323.15 K, x2 = 0.305 | – | 1307.3 ± 0.9
[2], 323.2 K, x2 = 0.755 | – | 1274.7 ± 1.9
[2], 333.14 K, x2 = 0.755 | – | 1266.8 ± 1.9
[2], 333.15 K, x2 = 0 | – | 1317.8 ± 0.8
[2], 333.15 K, x2 = 0.5164 | – | 1281.1 ± 1.2
[2], 333.16 K, x2 = 0.305 | – | 1296.4 ± 0.9
[2], 333.2 K, x2 = 0.099 | – | 1315.8 ± 0.8
[3], 298.15 K, x2 = 0.0555 | 0.0929 ± 0.00382 | –
[3], 298.15 K, x2 = 0.1114 | 0.15 ± 0.00574 | –
[3], 298.15 K, x2 = 0.1904 | 0.256 ± 0.00956 | –
[3], 298.15 K, x2 = 0.3199 | 0.288 ± 0.0105 | –
[3], 298.15 K, x2 = 0.4137 | 0.273 ± 0.01 | –
[3], 298.15 K, x2 = 0.4847 | 0.25 ± 0.00932 | –
[3], 298.15 K, x2 = 0.5852 | 0.208 ± 0.00789 | –
[3], 298.15 K, x2 = 0.7016 | 0.155 ± 0.00598 | –
[3], 298.15 K, x2 = 0.79 | 0.112 ± 0.00454 | –
[3], 298.15 K, x2 = 0.9039 | 0.0506 ± 0.00234 | –
[3], 323.15 K, x2 = 0.0555 | 0.0535 ± 0.00239 | –
[3], 323.15 K, x2 = 0.1114 | 0.0933 ± 0.00382 | –
[3], 323.15 K, x2 = 0.1904 | 0.172 ± 0.00669 | –
[3], 323.15 K, x2 = 0.2477 | 0.181 ± 0.00693 | –
[3], 323.15 K, x2 = 0.3199 | 0.185 ± 0.00693 | –
[3], 323.15 K, x2 = 0.4137 | 0.171 ± 0.00645 | –
[3], 323.15 K, x2 = 0.4847 | 0.155 ± 0.00598 | –
[3], 323.15 K, x2 = 0.5852 | 0.126 ± 0.00502 | –
[3], 323.15 K, x2 = 0.7016 | 0.0908 ± 0.00382 | –
[3], 323.15 K, x2 = 0.79 | 0.0632 ± 0.00287 | –
[3], 323.15 K, x2 = 0.9216 | 0.0233 ± 0.00148 | –

CCCCn1cc[n+](C)c1.F[B-](F)(F)F [1-butyl-3-methylimidazolium tetrafluoroborate]
[1]
Details | mass density [kg/m3]
283.15 K | 1213.3 ± 2.8
293.15 K | 1205.9 ± 2.8
303.15 K | 1198.6 ± 2.8
313.15 K | 1191.4 ± 2.7
323.15 K | 1184.4 ± 2.7
333.15 K | 1177.4 ± 2.7

CCn1cc[n+](C)c1.F[B-](F)(F)F [1-ethyl-3-methylimidazolium tetrafluoroborate]
[1]
Details | mass density [kg/m3]
293.1 K | 1284.3 ± 3.2
303.11 K | 1276.5 ± 3.2
313.15 K | 1269.2 ± 3.1
323.14 K | 1261.8 ± 3.1
333.23 K | 1254.6 ± 3
